In experiment [1] the target is Somatostatin receptor type 1 (Homo sapiens, UniProt P30872). In words: Inhibition of [125I](Leu8,DTrp22,Tyr25)-SRIF28 binding to human sst1.
Experiment [2] addresses Somatostatin receptor type 2 (Homo sapiens, UniProt P30874). The experiment is described as follows: Inhibition of [125I](Leu8,DTrp22,Tyr25)-SRIF28 binding to human sst2.
For experiment [3], the target named is Somatostatin receptor type 3 (Homo sapiens, UniProt P32745). The experiment is described as follows: Inhibition of [125I](Leu8,DTrp22,Tyr25)-SRIF28 binding to human sst3.
For experiment [4], the target named is Somatostatin receptor type 5 (Homo sapiens, UniProt P35346). In words: Inhibition of [125I](Leu8,DTrp22,Tyr25)-SRIF28 binding to human sst5.
In experiment [5] the target is Somatostatin receptor type 4 (Homo sapiens, UniProt P31391). The experiment is described as follows: Inhibition of [125I](Leu8,DTrp22,Tyr25)-SRIF28 binding to human sst4.

SMILES strings stand for the structures. Positions of bridges follow the written chain, without caps; N, C: chain ends. Non-standard residues stand in square brackets, D forms with d. Residues, ends and D or L forms follow the SMILES beside them.

Sequence of Somatostatin receptor type 3 (P32745 whole entry): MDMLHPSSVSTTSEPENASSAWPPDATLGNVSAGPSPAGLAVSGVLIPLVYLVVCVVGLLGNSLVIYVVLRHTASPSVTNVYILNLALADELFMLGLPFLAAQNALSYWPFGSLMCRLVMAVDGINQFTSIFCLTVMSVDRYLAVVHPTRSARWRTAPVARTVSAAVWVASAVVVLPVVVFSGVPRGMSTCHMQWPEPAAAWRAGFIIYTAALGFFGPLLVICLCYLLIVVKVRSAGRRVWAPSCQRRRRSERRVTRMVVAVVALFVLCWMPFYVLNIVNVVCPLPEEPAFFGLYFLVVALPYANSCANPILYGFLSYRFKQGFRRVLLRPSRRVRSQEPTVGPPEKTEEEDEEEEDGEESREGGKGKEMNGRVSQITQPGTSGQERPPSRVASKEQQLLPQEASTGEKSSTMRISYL
Sequence of Somatostatin receptor type 5 (P35346 whole entry): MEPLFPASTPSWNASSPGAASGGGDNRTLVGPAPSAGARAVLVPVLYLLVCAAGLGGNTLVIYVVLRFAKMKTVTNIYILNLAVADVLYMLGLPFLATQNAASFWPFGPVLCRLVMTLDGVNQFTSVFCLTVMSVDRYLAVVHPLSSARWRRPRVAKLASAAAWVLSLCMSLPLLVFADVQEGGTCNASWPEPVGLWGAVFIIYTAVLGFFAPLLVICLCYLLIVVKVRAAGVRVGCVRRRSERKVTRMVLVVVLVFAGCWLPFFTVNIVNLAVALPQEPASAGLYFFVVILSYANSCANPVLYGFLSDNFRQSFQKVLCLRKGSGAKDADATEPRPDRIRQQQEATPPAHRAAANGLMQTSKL
Sequence of Somatostatin receptor type 2 (P30874 whole entry): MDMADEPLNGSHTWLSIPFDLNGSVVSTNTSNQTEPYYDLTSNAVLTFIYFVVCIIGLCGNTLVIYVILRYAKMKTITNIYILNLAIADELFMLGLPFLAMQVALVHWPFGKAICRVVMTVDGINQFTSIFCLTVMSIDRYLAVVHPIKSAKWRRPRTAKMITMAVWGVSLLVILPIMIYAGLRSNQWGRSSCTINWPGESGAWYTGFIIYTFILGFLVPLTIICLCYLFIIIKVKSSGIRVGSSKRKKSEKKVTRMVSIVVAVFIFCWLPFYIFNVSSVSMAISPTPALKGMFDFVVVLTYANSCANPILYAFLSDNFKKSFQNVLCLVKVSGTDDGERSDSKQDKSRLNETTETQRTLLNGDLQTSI
Sequence of Somatostatin receptor type 4 (P31391 whole entry): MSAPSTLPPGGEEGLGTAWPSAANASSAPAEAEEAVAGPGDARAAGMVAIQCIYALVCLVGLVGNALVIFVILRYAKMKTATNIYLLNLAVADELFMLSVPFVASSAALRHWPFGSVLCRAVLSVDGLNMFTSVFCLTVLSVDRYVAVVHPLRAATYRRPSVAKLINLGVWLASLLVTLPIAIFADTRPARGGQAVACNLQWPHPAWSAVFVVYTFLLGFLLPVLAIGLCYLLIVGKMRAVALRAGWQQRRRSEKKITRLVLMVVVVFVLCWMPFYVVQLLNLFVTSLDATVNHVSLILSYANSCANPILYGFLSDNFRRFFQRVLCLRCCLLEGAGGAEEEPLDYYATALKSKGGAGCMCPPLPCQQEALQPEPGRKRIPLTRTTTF
Sequence of Somatostatin receptor type 1 (P30872 whole entry): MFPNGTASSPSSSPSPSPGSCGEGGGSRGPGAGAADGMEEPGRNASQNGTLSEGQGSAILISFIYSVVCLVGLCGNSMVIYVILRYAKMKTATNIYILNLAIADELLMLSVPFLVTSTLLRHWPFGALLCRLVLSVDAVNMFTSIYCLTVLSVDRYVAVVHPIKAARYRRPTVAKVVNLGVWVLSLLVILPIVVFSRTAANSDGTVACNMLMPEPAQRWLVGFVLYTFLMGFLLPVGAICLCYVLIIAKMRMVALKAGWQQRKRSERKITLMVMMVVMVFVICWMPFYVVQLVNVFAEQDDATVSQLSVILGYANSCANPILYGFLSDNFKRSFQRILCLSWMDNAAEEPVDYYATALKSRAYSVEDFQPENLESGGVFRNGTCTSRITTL

Broadly, the IC50 is the concentration that inhibits the measured activity by half. Consider `C[C@@H](O)[C@H](NC(=O)[C@@H]1CSSC[C@H](NC(=O)[C@@H](Cc2ccccc2)NC(N)=O)C(=O)N[C@@H](Cc2ccc(NC(N)=O)cc2)C(=O)N[C@H](Cc2c[nH]c3ccccc23)C(=O)N[C@@H](CCCCN)C(=O)N[C@@H]([C@@H](C)O)C(=O)N1)C(N)=O`, for which the IC50 in experiment [1] was > 1000 nM; in experiment [2], 6.2 nM; in experiment [3] it was 210 nM; in experiment [4], 77 nM.
Consider `C[C@@H](O)[C@H](NC(=O)[C@@H]1CSSC[C@H](NC(=O)[C@H](N)Cc2ccccc2)C(=O)N[C@@H](Cc2ccccc2)C(=O)N[C@H](Cc2c[nH]c3ccccc23)C(=O)N[C@@H](CCCCN)C(=O)N[C@@H]([C@@H](C)O)C(=O)N1)C(N)=O`, for which the IC50 in experiment [1] was > 1000 nM; in experiment [2], 2.2 nM; in experiment [3], 38 nM; in experiment [5], > 10000 nM.
As to `C[C@@H]1NC(=O)[C@@H](NC(=O)[C@H](N)Cc2ccccc2)CSSC[C@@H](C(=O)N[C@H](C(N)=O)[C@@H](C)O)NC(=O)[C@H]([C@@H](C)O)NC(=O)[C@H](CCCCN)NC(=O)[C@@H](Cc2c[nH]c3ccccc23)NC1=O`, the IC50 is > 1000 nM in experiment [1]; 3.6 nM in experiment [2]; 543 nM in experiment [3]; > 1000 nM in experiment [5]; 158 nM in experiment [4].
On to `C[C@@H](O)[C@H](NC(=O)[C@@H]1CSSC[C@H](NC(=O)[C@H](Cc2ccccc2)NC(N)=O)C(=O)N[C@@H](Cc2ccc(NC(N)=O)cc2)C(=O)N[C@H](Cc2c[nH]c3ccccc23)C(=O)N[C@@H](CCCCN)C(=O)N[C@@H]([C@@H](C)O)C(=O)N1)C(N)=O`, for which the IC50 is > 1000 nM in experiment [1], 7.5 nM in experiment [2], 942 nM in experiment [3] and 109 nM in experiment [4].
For `CONC(=O)Nc1ccc(C[C@@H]2NC(=O)[C@@H](NC(=O)[C@@H](Cc3ccccc3)NC(N)=O)CSSC[C@@H](C(=O)N[C@H](C(N)=O)[C@@H](C)O)NC(=O)[C@H]([C@@H](C)O)NC(=O)[C@H](CCCCN)NC(=O)[C@@H](Cc3c[nH]c4ccccc34)NC2=O)cc1`, the IC50 in experiment [1] is > 1000 nM; in experiment [2], 3.1 nM; in experiment [3], 958 nM; in experiment [5] it was > 1000 nM; in experiment [4] it was 539 nM.
Regarding `C[C@@H](O)[C@@H]1NC(=O)[C@H](CCCCN)NC(=O)[C@@H](Cc2c[nH]c3ccccc23)NC(=O)[C@H](Cc2ccccc2)NC(=O)[C@@H](N)CSSC[C@@H](C(=O)O)NC1=O` (H-CF[dW]KTC-OH; disulfide 1-6), the IC50 in experiment [1] is > 1000 nM; in experiment [2], 378 nM; in experiment [3], > 1000 nM; in experiment [5], > 1000 nM; in experiment [4] it was > 1000 nM.

Values taken from ChEMBL document CHEMBL1138037, “Novel sst2-selective somatostatin agonists. Three-dimensional consensus structure by NMR” (J Med Chem, 2006).
